In patent US20100068299A1 (priority 2003, published 2010):

Test: Reversal of formed copper phosphite precipitate by added agent (Example 1)
Assay type: physicochemical
Details: agent added at final concentration of 10 mM; 0.6 g/l Cu(OH)2, 14.4 g/l KH2PO3, 1 g/l K2CO3, pH 5.5

O=C([O-])CN(CCN(CC(=O)[O-])CC(=O)O)CC(=O)O.[Na+].[Na+] [disodium EDTA]
effect on formed copper phosphite precipitate: immediately disappeared
